Our source for the IC50 values is patent publication US11021481B2, “Substituted isoindolin-1-ones and 2,3-dihydro-1h-pyrrolo[3,4-c]pyridin-1-ones as HPK1 antagonists” (Nimbus Saturn, Inc., priority 2019, dated 2021).

Structures are written as SMILES. Where only a bound is given, the exact number is not on record here.

Sequence of HPK1 (Q92918 whole entry): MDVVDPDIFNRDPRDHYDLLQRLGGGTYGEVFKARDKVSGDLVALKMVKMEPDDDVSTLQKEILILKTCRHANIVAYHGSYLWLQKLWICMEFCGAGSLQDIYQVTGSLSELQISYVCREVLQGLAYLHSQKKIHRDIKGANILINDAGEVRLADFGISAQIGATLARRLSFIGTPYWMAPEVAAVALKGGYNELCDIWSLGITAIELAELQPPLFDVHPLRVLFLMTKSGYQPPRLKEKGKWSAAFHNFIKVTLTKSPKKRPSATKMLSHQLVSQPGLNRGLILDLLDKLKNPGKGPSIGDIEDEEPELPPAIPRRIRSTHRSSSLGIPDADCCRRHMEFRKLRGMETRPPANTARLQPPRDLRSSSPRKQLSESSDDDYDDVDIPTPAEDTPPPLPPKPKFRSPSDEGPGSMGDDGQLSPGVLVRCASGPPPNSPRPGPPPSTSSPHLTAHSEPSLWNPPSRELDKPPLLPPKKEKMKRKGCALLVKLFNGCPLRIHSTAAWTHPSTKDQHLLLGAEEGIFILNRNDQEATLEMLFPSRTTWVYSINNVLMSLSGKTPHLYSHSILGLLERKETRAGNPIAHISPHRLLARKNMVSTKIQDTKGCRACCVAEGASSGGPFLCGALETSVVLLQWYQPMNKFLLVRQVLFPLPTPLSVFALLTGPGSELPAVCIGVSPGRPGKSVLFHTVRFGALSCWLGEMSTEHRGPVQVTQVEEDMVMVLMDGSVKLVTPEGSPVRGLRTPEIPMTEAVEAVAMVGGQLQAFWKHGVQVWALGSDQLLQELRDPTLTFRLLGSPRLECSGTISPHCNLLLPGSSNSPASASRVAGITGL

This assay addresses HPK1 (Homo sapiens (Human), UniProt Q92918). Briefly: HPK1 biochemical enzyme assay (microfluidic mobility shift assay). The conditions noted are these: 1.5 nM HPK1, ATP 1 mM final, 30 min preincubation, 60 min at RT, Caliper EZ Reader; read-out: HPK1 1000UMATP caliper IC50. Put shortly: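 Mobility shift readout of HPK1 activity after a 60 min RT reaction with 1 mM ATP, 1 μM substrate and 5 mM MgCl2. Enzyme/substrate mix was first exposed to compounds for 30 min, using ten-point curves topping at 3 μM final.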
For orientation: IC50 means the concentration needed to halve the response being measured. `Cc1cc2c(-c3ncc(Nc4ccc(N5CCC[C@H](C(C)(C)O)C5)cn4)c4c3CNC4=O)ccnc2n1C` [I-229]: the half-inhibitory concentration (IC50) was less than 100 nM.
The result for `CN1CCN(c2cccc(Nc3ccc(-c4cnc5cc(F)ccn45)c4c3C(=O)NC4)n2)CC1` [I-230, 4-(7-fluoroimidazo [1,2-a]pyridin-3-yl)-7-[[6-(4-methylpiperazin-1-yl)-2-pyridyl)amino] isoindolin-1-one] reads less than 100 nM; that for `Cn1ccc2c(-c3ncc(Nc4cccc(N5CCC[C@@H](N)C5)n4)c4c3CNC4=O)ccnc21` [I-231, 7-[[6-[(3R)-3-amino-1-piperidyl]-2-pyridyl]-amino]-4-(1-methylpyrrolo [2,3-b]pyridin-4-yl)-2,3-dihydropyrrolo [3,4-c]pyridin-1-one], less than 100 nM.
To `Cn1ccc2c(-c3ncc(Nc4cccc(N5CCNCC5)n4)c4c3CNC4=O)ccnc21` [I-232, 4-(1-methylpyrrolo [2,3-b]pyridin-4-yl)-7-[(6-piperazin-1-yl-2-pyridyl)amino]-2,3-dihydropyrrolo [3,4-c]pyridin-1-one] belongs less than 100 nM; to `Cc1ccn2c(-c3ccc(Nc4ccc(N5CCC[C@@H](C(C)(C)O)C5)cn4)c4c3CNC4=O)cnc2n1` [I-233, 7-[[5-[(3R)-3-(1-hydroxy-1-methyl-ethyl)-1-piperidyl)-2-pyridyl)-amino]-4-(7-methylimidazo [1,2-a]pyrimidin-3-yl]isoindolin-1-one], less than 100 nM; to `CN1CCN(c2cccc(Nc3ccc(-c4cnc5cnccn45)c4c3C(=O)NC4)n2)CC1` [I-234, 4-imidazo[1,2-a]pyrazin-3-yl-7-[[6-(4-methylpiperazin-1-yl)-2-pyridyl]-amino]isoindolin-1-one], 100 to 1000 nM.
The result for `COCCN(C)c1ccc(Nc2ccc(-c3cnc4cc(F)ccn34)c3c2C(=O)NC3)nc1` [I-235, 4-(7-fluoroimidazo [1,2-a]pyridin-3-yl)-7-[[5-[2-methoxyethyl (methyl)amino]-2-pyridyl]amino] isoindolin-1-one] reads less than 100 nM.
As for `CN1CCN(c2cccc(Nc3ccc(-c4cnc5cc(Cl)ccn45)c4c3C(=O)NC4)n2)CC1` [I-236, 4-(7-chloroimidazo [1,2-a]pyridin-3-yl)-7-[[6-(4-methylpiperazin-1-yl)-2-pyridyl]amino] isoindolin-1-one], the 50% inhibitory concentration (IC50) was less than 100 nM.
The result for `Cc1cc2c(-c3ncc(Nc4ccc(N5CCC[C@@H](C(C)(C)O)C5)cn4)c4c3CNC4=O)ccnc2n1C` [I-237, 4-[1,2-dimethylpyrrolo [2,3-b]pyridin-4-yl)-7-[[5-[(3R)-3-(1-hydroxy-1-methyl-ethyl)-1-piperidyl]-2-pyridyl]amino]-2,3-dihydropyrrolo [3,4-c]pyridin-1-one] reads 100 to 1000 nM.
In the case of `O=C1NCc2c(-c3cnc4cc(F)ccn34)ccc(Nc3ccc(CN4CCOCC4)cn3)c21` [I-238, 4-(7-fluoroimidazo [1,2-a]pyridin-3-yl)-7-[[5-(morpholino-methyl)-2-pyripyl]amino] isoindolin-1-one], the half-maximal inhibitory concentration (IC50) was less than 100 nM.
To `CN[C@@H]1CCCN(c2cccc(Nc3cnc(-c4ccnc5c4ccn5C)c4c3C(=O)NC4)n2)C1` [I-239, 7-[[6-[(3R)-3-(methylamino)-1-piperidyl]-2-pyridyl]-amino]-4-(1-methylpyrrolo [2,3-b]pyridin-4-yl)-2,3-dihydropyrrolo [3,4-c]pyridin-1-one] belongs 100 to 1000 nM; to `Cn1ccc2c(-c3ncc(Nc4cccc(N5CCCNCC5)n4)c4c3CNC4=O)ccnc21` [I-240, 7-[[6-(1,4-diazepan-1-yl)-2-pyridyl]amino]-4-(1-methylpyrrolo [2,3-b]pyridin-4-yl)-2,3-dihydropyrrolo [3,4-c]pyridin-1-one], 100 to 1000 nM.
The result for `Cc1cccn2c(-c3ncc(Nc4ccc(N5CCC[C@H](C(C)(C)O)C5)cn4)c4c3CNC4=O)cnc12` [I-241, 7-[[5-[(3S)-3-(1-hydroxy-1-methyl-ethyl)-1-piperidyl]-2-pyridyl]-amino]-4-(8-methylimidazo [1,2-a]pyridin-3-yl)-2,3-dihydropyrrolo [3,4-c]pyridin-1-one] reads less than 100 nM; that for `COc1c(F)ccn2c(-c3ccc(Nc4ccc(N5CCC(O)CC5)cn4)c4c3CNC4=O)cnc12` [I-242, 4-(7-fluoro-8-methoxy-imidazo[1,2-a]pyridin-3-yl)-7-[[5-(4-hydroxy-1-piperidyl)-2-pyridyl]amino] isoindolin-1-one], less than 100 nM; that for `CC(C)(O)[C@H]1CCCN(c2ccc(Nc3cnc(-c4cnc5c(F)cccn45)c4c3C(=O)NC4)nc2)C1` [I-243, 4-(8-fluoroimidazo [1,2-a]pyridin-3-yl)-7-[[5-[(3S)-3-(1-hydroxy-1-methyl-ethyl)-1-piperidyl]-2-pyridyl]-amino]-2,3-dihydropyrrolo [3,4-c]pyridin-1-one], less than 100 nM.
The result for `CNC1(C)CCN(c2ccc(Nc3cnc(-c4ccnc5c4ccn5C)c4c3C(=O)NC4)nc2)CC1` [I-244, 7-[[5-[4-methyl-4-(methylamino)-1-piperidyl]-2-pyridyl]-amino]-4-(1-methylpyrrolo [2,3-b]pyridin-4-yl)-2,3-dihydropyrrolo [3,4-c]pyridin-1-one] reads less than 100 nM; that for `CN[C@H]1CCN(c2cccc(Nc3cnc(-c4ccnc5c4ccn5C)c4c3C(=O)NC4)n2)C1` [I-245, 7-[[6-[(3S)-3-(methylamino)pyrrolidin-1-yl]-2-pyridyl]amino]-4-(1-methylpyrrolo [2,3-b]pyridin-4-yl)-2,3-dihydropyrrolo [3,4-c]pyridin-1-one], less than 100 nM; that for `CN(C)CCN(C)c1cccc(Nc2cnc(-c3ccnc4c3ccn4C)c3c2C(=O)NC3)n1` [I-246, 7-[[6-[2-(dimethylami-no)ethyl-methyl-amino]-2-pyridyl]-amino]-4-(1-methylpyrrolo [2,3-b]pyridin-4-yl)-2,3-dihydropyrrolo [3,4-c]pyridin-1-one], less than 100 nM.
Turning to `CN1CCN(c2cccc(Nc3ccc(-c4ccnc5c4ccn5C)c4c3C(=O)NC4)n2)CC1` [I-247, 7-[[6-(4-methylpiperazin-1-yl)-2-pyridyl]amino]-4-(1-methylpyrrolo [2,3-b]pyridin-4-yl)isoindolin-1-one], the 50% inhibitory concentration (IC50) is less than 100 nM.
In the case of `Cc1nc2ccccn2c1-c1ncc(Nc2ccc(N3CCC(O)CC3)cn2)c2c1CNC2=O` [I-248, 7-[[5-(4-hydroxy-1-piperidyl)-2-pyridyl]-amino]-4-(2-methylimidazo [1,2-a]pyridin-3-yl)-2,3-dihydropyrrolo [3,4-c]pyridin-1-one], the IC50 is greater than 1000 nM.
Consider `CN(C)CCOc1ccn2c(-c3ccc(Nc4ccc(N5CCC(F)C(O)C5)cn4)c4c3CNC4=O)cnc2c1` (centres unmarked) [I-249], for which the IC50 was 100 to 1000 nM.
Consider `CN1CCN(c2ccc(Nc3cnc(-c4c[nH]c5cc(O)ccc45)c4c3C(=O)NC4)nc2)CC1` [I-250], for which the IC50 is 100 to 1000 nM.
The result for `CN1CCN(c2ccc(Nc3cnc(-c4cccc5c4ccn5C)c4c3C(=O)NC4)nc2)CC1` [I-251, 4-(1-methyl-1H-indol-4-yl)-7-((5-(4-methylpiperazin-1-yl)pyridin-2-yl)amino)-2,3-dihydro-1H-pyrrolo[3,4-c]pyridin-1-one] reads less than 100 nM; that for `CN1CCN(c2ccc(Nc3cnc(-c4cccc5[nH]ccc45)c4c3C(=O)NC4)nc2)CC1` [I-252, 4-(1H-indol-4-yl)-7-((5-(4-methylpiperazin-1-yl)pyridin-2-yl)amino)-2,3-dihydro-1H-pyrrolo[3,4-c]pyridin-1-one], 100 to 1000 nM.
For `CN1CCN(c2ccc(Nc3cnc(-c4c[nH]c5nc(C(F)(F)F)ccc45)c4c3C(=O)NC4)nc2)CC1` [I-253, 7-((5-(4-methylpiperazin-1-yl)pyridin-2-yl)amino]-4-(6-(trifluorometh-yl)-1H-pyrrolo[2,3-b]pyridin-3-yl)-2,3-dihydro-1H-pyrrolo[3,4-c]pyridin-1-one], the IC50 is greater than 1000 nM.
The result for `CN1CCN(c2ccc(Nc3cnc(-c4cnn5c4CCC5)c4c3C(=O)NC4)nc2)CC1` [I-254, 4-(5,6-dihydro-4H-pyrrolo[1,2-b]pyrazol-3-yl)-7-((5-(4-methylpiperazin-1-yl)pyridin-2-yl)amino)-2,3-dihydro-1H-pyrrolo[3,4-c]pyridin-1-one] reads 100 to 1000 nM; that for `CN1CCN(c2ccc(Nc3cnc(-c4cnn5c4CCCC5)c4c3C(=O)NC4)nc2)CC1` [I-255, 7-((5-(4-methylpiperazin-1-yl)pyridin-2-yl)amino)-4-(4,5,6,7-tetrahydropyra-zolo[1,5-a]pyridin-3-yl)-2,3-dihydro-1H-pyrrolo[3,4-c]pyridin-1-one], less than 100 nM; that for `CN1CCN(c2ccc(Nc3ccc(-c4ccn5ncccc45)c4c3C(=O)NC4)nc2)CC1` [I-256, 7-((5-(4-methylpiperazin-1-yl)pyridin-2-yl)amino)-4-(pyrrolo[1,2-b]pyridazin-5-yl)isoindolin-1-one], less than 100 nM.
The result for `CN1CCN(c2ccc(Nc3ccc(-c4ccnc5c4ccn5Cc4ccccc4)c4c3C(=O)NC4)nc2)CC1` [I-257, 4-(1-benzyl-1H-pyrrolo[2,3-b]pyridin-4-yl)-7-((5-(4-methylpiperazin-1-yl)pyridin-2-yl)amino)isoin-dolin-1-one] reads 100 to 1000 nM; that for `Cn1ccc2c(-c3ncc(Nc4ccc(N5CCNCC5)cn4)c4c3CNC4=O)ccnc21` [I-258, 4-(1-methyl-1H-pyrrolo[2,3-b]pyridin-4-yl)-7-((5-(piperazin-1-yl)pyridin-2-yl)amino)-2,3-dihydro-1H-pyrrolo[3,4-c]pyridin-1-one], less than 100 nM.
To `CN1CCN(c2ccc(Nc3cnc(-c4c[nH]c5cc(OCc6ccccc6)ccc45)c4c3C(=O)NC4)nc2)CC1` [I-260, 4-(6-(benzyloxy)-1H-indol-3-yl)-7-((5-(4-methylpiperazin-1-yl)pyridin-2-yl)amino)-2.3-dihydro-1H-pyrrolo[3,4-c]pyridin-1-one] belongs greater than 1000 nM; to `C[C@@H]1COc2c(-c3ccc(Nc4ccc(N5CCN(C)CC5)cn4)c4c3CNC4=O)cnn2C1` [I-261, (S)-4-(6-methyl-6,7-dihydro-5H-pyrazolo[5,1-b][l,3]oxazin-3-yl)-7-((5-(4-methylpiperazin-1-yl)pyridin-2-yl)amino)isoin-dolin-1-one], less than 100 nM.
